Experimental data reported in US10172814B2, “Substituted pyridyl-cycloalkyl-carboxylic acids, compositions containing them and medical uses thereof” (BAYER PHARMA AKTIENGESELLSCHAFT, priority 2014, dated 2019).

target: human PTGES (Homo sapiens (Human), UniProt O14684); experiment: Human PTGES biochemical enzyme inhibition assay (conversion of PGH2 to PGE2, TR-FRET); details: Enzymatic conversion of PGH2 to PGE2; read-out: Human PTGES IC50
Procedure: Human PTGES Biochemical Enzyme Inhibition Assay:
PTGES (Microsomal prostaglandin E synthase 1) is an enzyme that converts prostaglandin H2 (PGH2) to prostaglandin E2 (PGE2) in the presence of reduced glutathione (GSH).
Recombinant proteins (human isoforms) of PTGES containing a FLAG tag, expressed in baculovirus infected insect cells (Hi-5) and purified by affinity chromatography was used as enzyme in the assay. Substrate was prostaglandin H2 (Cayman Chemicals).
4 ul of a solution of human PTGES in assay buffer [100 mM sodium phosphate pH 7.2, 2.5 mM Glutathion reduced, 1 mM EDTA, 0.01% BSA, 0.4 mM DTT, 0.15 mM n-dodecylmaltoside] was added to the well containing test compound and incubated for 15-20 minutes to allow binding of the compound to the enzyme prior to the enzymatic reaction. The reaction was started by addition of 1 ul of an ice cold solution containing PGH2 (40 nM in assay buffer resulting in a final concentration of 8 nM PGH2 in the assay). […] The concentration of each isoform of PTGES was adapted to the activity of the respective enzyme preparation to maintain linear reaction properties within the reaction time. […] The reaction was stopped by addition of 1 ul of a solution containing 15 mM SnCl2 and 400 mM KF in water. SnCl2 converts the remaining unstable PGH2 to stable PGF2alpha. Then, 3 ul of the a first detection solution containing PGE2-D2 (Cisbio Bioassays, TR-FRET reagent, diluted according to the manufacturer's recommendation, typically 1:20 in reconstitution buffer) was added. […] The resulting mix was incubated overnight at 4° C. to allow the formation of a complex of PGE2 and the detection reagents. […] Dilution series were made prior to the assay in a 100 fold concentrated form by serial dilution. IC50 values were calculated by 4-Parameter fitting.

Chain of human PTGES (O14684 whole entry): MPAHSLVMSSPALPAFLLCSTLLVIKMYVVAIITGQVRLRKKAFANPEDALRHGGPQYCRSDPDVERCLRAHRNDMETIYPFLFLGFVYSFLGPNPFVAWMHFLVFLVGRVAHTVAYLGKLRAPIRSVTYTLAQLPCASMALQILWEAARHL

| SMILES | IC50 |
| --- | --- |
| Cc1cc(-c2ccc(C(C(=O)Nc3cccc(CCC(=O)O)c3C)C3CCCC3)cc2)cnc1C (racemic) [Example 27, (R/S) 3-[3-({Cyclopentyl[4-(5,6-dimethylpyridin-3-yl)phenyl]acetyl}amino)-2-methylphenyl]propanoic acid] | 90.3 nM |
| Cc1c(CCC(=O)O)cccc1NC(=O)C(c1ccc(-c2cncc(OC(F)F)c2)cc1)C1CCCC1 (racemic) [Example 28, (R/S) 3-{3-[(Cyclopentyl{4-[5-(difluoromethoxy)pyridin-3-yl]phenyl}acetyl)amino]-2-methylphenyl}propanoic acid] | 380 nM |
| Cc1c(CCC(=O)O)cccc1NC(=O)C(c1ccc(-c2cncc(C(F)F)c2)cc1)C1CCCC1 (racemic) [Example 29, (R/S) 3-{3-[(Cyclopentyl{4-[5-(difluoromethyl)pyridin-3-yl]phenyl}acetyl)amino]-2-methylphenyl}propanoic acid] | 78.2 nM |
| Cc1c(CCC(=O)O)cccc1NC(=O)C(c1ccc(-c2cncc(CF)c2)cc1)C1CCCC1 (racemic) [Example 30, (R/S) 3-{3-[(Cyclopentyl{4-[5-(fluoromethyl)pyridin-3-yl]phenyl}acetyl)amino]-2-methylphenyl}propanoic acid] | 188 nM |
| Cc1c(CCC(=O)O)cccc1NC(=O)C(c1ccc(-c2cncc(Cl)c2)cc1)C1CC1 (racemic) [Example 31, (R/S) 3-[3-({[4-(5-Chloropyridin-3-yl)phenyl](cyclopropyl)acetyl}amino)-2-methylphenyl]propanoic acid] | 443 nM |
| Cc1c(CCC(=O)O)cccc1NC(=O)C(c1ccc(-c2cncc(C(F)(F)F)c2)cc1)C1CC1 (racemic) [Example 32, (R/S) 3-{3-[(Cyclopropyl{4-[5-(trifluoromethyl)pyridin-3-yl]phenyl}acetyl)amino]-2-methylphenyl}propanoic acid] | 470 nM |
| Cc1c(NC(=O)C(c2ccc(-c3cncc(C(F)(F)F)c3)cc2)C2CCCC2)cccc1OCC(=O)O (racemic) [Example 33, (R/S) {3-[(Cyclopentyl{4-[5-(trifluoromethyl)pyridin-3-yl]phenyl}acetyl)amino]-2-methylphenoxy}acetic acid] | 14.3 nM |
| COc1ccc(NC(=O)C(c2ccc(-c3cncc(C(F)(F)F)c3)cc2)C2CCCC2)c(C)c1CCC(=O)O (racemic) [Example 40, (R/S) 3-{3-[(Cyclopentyl{4-[5-(trifluoromethyl)pyridin-3-yl]phenyl}acetyl)amino]-6-methoxy-2-methylphenyl}propanoic acid] | 28.2 nM |
| Cc1cc(C(C(=O)Nc2cccc(CCC(=O)O)c2C)C2CCCC2)ccc1-c1cncc(C(F)(F)F)c1 (racemic) [Example 41, (R/S) 3-{3-[(Cyclopentyl{3-methyl-4-[5-(trifluoromethyl)pyridin-3-yl]phenyl}acetyl)amino]-2-methylphenyl}propanoic acid] | 19.2 nM |
| CCOc1cncc(-c2ccc(C(C(=O)Nc3cccc(CCC(=O)O)c3C)C3CCCC3)cc2F)c1 (racemic) [Example 46, (R/S) 3-[3-({Cyclopentyl[4-(5-ethoxypyridin-3-yl)-3-fluorophenyl]acetyl}amino)-2-methylphenyl]propanoic acid] | 55.3 nM |
| Cc1c(CCC(=O)O)cccc1NC(=O)C(c1ccc(-c2cncc(C(F)(F)F)c2)c(F)c1)C1CCCC1 (racemic) [Example 47, (R/S) 3-{3-[(Cyclopentyl{3-fluoro-4-[5-(trifluoromethyl)pyridin-3-yl]phenyl}acetyl)amino]-2-methylphenyl}propanoic acid] | 15.9 nM |
| Cc1c(CCC(=O)O)cccc1NC(=O)C(c1ccc(-c2cncc(C(F)F)c2)c(F)c1)C1CCCC1 (racemic) [Example 50, (R/S) 3-{3-[(cyclopentyl{4-[5-(difluoromethyl)pyridin-3-yl]-3-fluorophenyl}acetyl)amino]-2-methylphenyl}propanoic acid] | 42.9 nM |
| CCOc1cncc(-c2ccc(C(C(=O)Nc3cccc(CCC(=O)O)c3C)C3CCCC3)c(F)c2)c1 (racemic) [Example 52, (R/S) 3-[3-({Cyclopentyl[4-(5-ethoxypyridin-3-yl)-2-fluorophenyl]acetyl}amino)-2-methylphenyl]propanoic acid] | 273 nM |
| Cc1c(CCC(=O)O)cccc1NC(=O)C(c1ccc(-c2cncc(C(F)(F)F)c2)cc1F)C1CCCC1 (racemic) [Example 53, (R/S) 3-{3-[(Cyclopentyl{2-fluoro-4-[5-(trifluoromethyl)pyridin-3-yl]phenyl}acetyl)amino]-2-methylphenyl}propanoic acid] | 53.3 nM |
| Cc1c(CCC(=O)O)cccc1NC(=O)C(c1ccc(-c2cncc(C(F)(F)F)c2)cc1)C1CCC1 (racemic) [Example 54, (R/S) 3-{3-[(Cyclobutyl{4-[5-(trifluoromethyl)pyridin-3-yl]phenyl}acetyl)amino]-2-methylphenyl}propanoic acid] | 27.3 nM |
| CCOc1cncc(-c2ccc(C(C(=O)Nc3cccc(CCC(=O)O)c3C)C3CCC3)cc2)c1 (racemic) [Example 58, (R/S) 3-[3-({Cyclobutyl[4-(5-ethoxypyridin-3-yl)phenyl]acetyl}amino)-2-methylphenyl]propanoic acid] | 210 nM |
| Cc1cc(-c2ccc(C(C(=O)Nc3cccc(CCC(=O)O)c3C)C3CCC3)cc2)cnc1C (racemic) [Example 59, (R/S) 3-[3-({Cyclobutyl[4-(5,6-dimethylpyridin-3-yl)phenyl]acetyl}amino)-2-methylphenyl]propanoic acid] | 193 nM |
| Cc1c(CCC(=O)O)cccc1NC(=O)C(c1ccc(-c2cncc(F)c2)cc1)C1CCC1 (racemic) [Example 60, (R/S) 3-[3-({Cyclobutyl[4-(5-fluoropyridin-3-yl)phenyl]acetyl}amino)-2-methylphenyl]propanoic acid] | 478 nM |
| Cc1ncc(-c2ccc(C(C(=O)Nc3cccc(CCC(=O)O)c3C)C3CCC3)cc2)cc1Cl (racemic) [Example 61, (R/S) 3-[3-({[4-(5-chloro-6-methylpyridin-3-yl)phenyl](cyclobutyl)acetyl}amino)-2-methylphenyl]propanoic acid] | 32.2 nM |
| Cc1ncc(-c2ccc(C(C(=O)Nc3cccc(CCC(=O)O)c3C)C3CCC3)cc2)cc1F (racemic) [Example 62, (R/S) 3-[3-({[4-(5-Fluoro-6-methylpyridin-3-yl)phenyl](cyclobutyl)acetyl}amino)-2-methylphenyl]propanoic acid] | 148 nM |
| Cc1c(CCC(=O)O)cccc1NC(=O)C(c1ccc(-c2cncc(OC(F)F)c2)cc1)C1CCC1 (racemic) [Example 63, (R/S) 3-{3-[(Cyclobutyl{4-[5-(difluoromethoxy)pyridin-3-yl]phenyl}acetyl)amino]-2-methylphenyl}propanoic acid] | 103 nM |
| Cc1cncc(-c2ccc(C(C(=O)Nc3cccc(CCC(=O)O)c3C)C3CCC3)cc2)c1 (racemic) [Example 64, (R/S) 3-[3-({Cyclobutyl[4-(5-methylpyridin-3-yl)phenyl]acetyl}amino)-2-methylphenyl]propanoic acid] | 344 nM |
| Cc1c(CCC(=O)O)cccc1NC(=O)C(c1ccc(-c2cncc(Cl)c2)cc1)C1CCCCC1 (racemic) [Example 65, (R/S) 3-[3-({[4-(5-Chloropyridin-3-yl)phenyl](cyclohexyl)acetyl}amino)-2-methylphenyl]propanoic acid] | 196 nM |
| Cc1c(CCC(=O)O)cccc1NC(=O)C(c1ccc(-c2cncc(C(F)(F)F)c2)cc1)C1CCCCC1 (racemic) [Example 66, (R/S) 3-{3-[(Cyclohexyl{4-[5-(trifluoromethyl)pyridin-3-yl]phenyl}acetyl)amino]-2-methylphenyl}propanoic acid] | 53.9 nM |
| CCOc1cncc(-c2ccc(C(C(=O)Nc3cccc(CCC(=O)O)c3C)C3CCCCC3)cc2)c1 (racemic) [Example 67, (R/S) 3-[3-({Cyclohexyl[4-(5-ethoxypyridin-3-yl)phenyl]acetyl}amino)-2-methylphenyl]propanoic acid] | 328 nM |
| CCC(CC(=O)O)c1cccc(NC(=O)C(c2ccc(-c3cncc(C)c3)cc2)C2CCCC2)c1C (racemic) [Example 104, (3R/S)-3-[3-({(2RS)-2-Cyclopentyl-2-[4-(5-methylpyridin-3-yl)phenyl]acetyl}amino)-2-methylphenyl]pentanoic acid] | 95.1 nM |
| Cc1c(CCC(=O)O)cccc1NC(=O)C(c1ccc(-c2cncc(C(F)(F)F)c2)cc1Cl)C1CCCC1 (racemic) [Example 161, (R/S) 3-(3-{[{2-chloro-4-[5-(trifluoromethyl)pyridin-3-yl]phenyl}(cyclopentyl)acetyl]amino}-2-methylphenyl)propanoic acid] | 278 nM |
| Cc1c(CCC(=O)O)cc(F)cc1NC(=O)C(c1ccc(-c2cncc(C(F)(F)F)c2)cc1)C1CCCC1 (racemic) [Example 167, (R/S) 3-{3-[(cyclopentyl{4-[5-(trifluoromethyl)pyridin-3-yl]phenyl}acetyl)amino]-5-fluoro-2-methylphenyl}propanoic acid] | 295 nM |
